Measurements from PubChem BioAssay AID1259407 (Chemical Carcinogenesis Research Information System (CCRIS), 2018).
The source made the active and inactive calls. How the calls were made is not given here.

Test system: CCRIS mutagenicity, Ames/micronucleus/aberration tests
Experiment: CCRIS mutagenicity studies
[1] = Test System: AMES SALMONELLA TYPHIMURIUM, Strain/Indicator: TA100, Metabolic Activation: HAMSTER, LIVER, S-9, PCB, Method: PREINCUBATION
[2] = Test System: AMES SALMONELLA TYPHIMURIUM, Strain/Indicator: TA100, Metabolic Activation: RAT, LIVER, S-9, PCB, Method: PREINCUBATION
[3] = Test System: AMES SALMONELLA TYPHIMURIUM, Strain/Indicator: TA98, Metabolic Activation: NONE, Method: STANDARD PLATE
[4] = Test System: AMES SALMONELLA TYPHIMURIUM, Strain/Indicator: TA100, Metabolic Activation: NONE, Method: STANDARD PLATE
[5] = Test System: AMES SALMONELLA TYPHIMURIUM, Strain/Indicator: TA98, Metabolic Activation: NONE, Method: PREINCUBATION
[6] = Test System: AMES SALMONELLA TYPHIMURIUM, Strain/Indicator: TA100, Metabolic Activation: NONE, Method: PREINCUBATION
[7] = Test System: AMES SALMONELLA TYPHIMURIUM, Strain/Indicator: TA1535, Metabolic Activation: NONE, Method: PREINCUBATION
[8] = Test System: AMES SALMONELLA TYPHIMURIUM, Strain/Indicator: TA1537, Metabolic Activation: NONE, Method: PREINCUBATION

In the case of `OCC1=CCN2CC[C@@H](O)[C@@H]12`, the mutagenic call [1] is reported as “inactive; negative”, the mutagenic call [2] is reported as “inactive; negative” and the mutagenic call (Test System: UDS HAMSTER HEPATOCYTES, Strain/Indicator: THY INCORP, Metabolic Activation: NONE, Method: AUTORADIOGRAPHY) is reported as “inactive; negative”. The mutagenic call (Test System: UDS MOUSE HEPATOCYTES, Strain/Indicator: THY INCORP, Metabolic Activation: NONE, Method: AUTORADIOGRAPHY) was “inactive; negative” and the mutagenic call (Test System: UDS RAT HEPATOCYTES, Strain/Indicator: THY INCORP, Metabolic Activation: NONE, Method: AUTORADIOGRAPHY) was “inactive; negative”.
In the case of `Cn1c2ccccc2c2ccccc21`, the mutagenic call [3] is reported as “inactive; negative”, the mutagenic call (Test System: AMES SALMONELLA TYPHIMURIUM, Strain/Indicator: TA98, Metabolic Activation: RAT LIVER S-9, AROCLOR 1254, Method: STANDARD PLATE) is reported as “inactive; negative” and the mutagenic call [4] is reported as “inactive; negative”. For the same compound, the mutagenic call (Test System: AMES SALMONELLA TYPHIMURIUM, Strain/Indicator: TA100, Metabolic Activation: RAT LIVER S-9, AROCLOR 1254, Method: STANDARD PLATE) was “active; positive” and the mutagenic call (Test System: UDS PRIMARY RAT HEPATOCYTES, Strain/Indicator: THY-INCORP, Metabolic Activation: NONE, Method: AUTORADIOGRAPHY) was “inactive; negative”.
In the case of `O=S(=O)(O)c1cc(N=Nc2ccc(O)cc2)ccc1C=Cc1ccc(N=Nc2ccc(O)cc2)cc1S(=O)(=O)O`, the mutagenic call (Test System: MOUSE LYMPHOMA, Strain/Indicator: L5178Y (TK+/TK-), Metabolic Activation: NONE, Method: SUSPENSION/PLATE) is reported as “inactive; negative. reevaluation of results: negative” and the mutagenic call (Test System: MOUSE LYMPHOMA, Strain/Indicator: L5178Y (TK+/TK-), Metabolic Activation: RAT, LIVER, S-9, AROCLOR 1254, Method: SUSPENSION/PLATE) is reported as “inactive; negative. reevaluation of results: negative”.
`Cc1ccccc1C` was tested, and the mutagenic call (Test System: AMES SALMONELLA TYPHIMURIUM, Strain/Indicator: TA98, Metabolic Activation: HAMSTER, LIVER, S-9, AROCLOR 1254, Method: PREINCUBATION) was “inactive; negative”, the mutagenic call [5] was “inactive; negative” and the mutagenic call [3] was “inactive; negative”. For the same compound, the mutagenic call (Test System: AMES SALMONELLA TYPHIMURIUM, Strain/Indicator: TA98, Metabolic Activation: RAT, LIVER, S-9, AROCLOR 1254, Method: PREINCUBATION) was “inactive; negative”, the mutagenic call (Test System: AMES SALMONELLA TYPHIMURIUM, Strain/Indicator: TA98, Metabolic Activation: RAT, LIVER, S-9, AROCLOR, Method: STANDARD PLATE) was “inactive; negative” and the mutagenic call (Test System: AMES SALMONELLA TYPHIMURIUM, Strain/Indicator: TA100, Metabolic Activation: HAMSTER, LIVER, S-9, AROCLOR 1254, Method: PREINCUBATION) was “inactive; negative”. For the same compound, the mutagenic call [6] was “inactive; negative”, the mutagenic call [4] was “inactive; negative” and the mutagenic call (Test System: AMES SALMONELLA TYPHIMURIUM, Strain/Indicator: TA100, Metabolic Activation: RAT, LIVER, S-9, AROCLOR 1254, Method: PREINCUBATION) was “inactive; negative”. The mutagenic call (Test System: AMES SALMONELLA TYPHIMURIUM, Strain/Indicator: TA100, Metabolic Activation: RAT, LIVER, S-9, AROCLOR, Method: STANDARD PLATE) was “inactive; negative”, the mutagenic call (Test System: AMES SALMONELLA TYPHIMURIUM, Strain/Indicator: TA1535, Metabolic Activation: HAMSTER, LIVER, S-9, AROCLOR 1254, Method: PREINCUBATION) was “inactive; negative” and the mutagenic call [7] was “inactive; negative”. For the same compound, the mutagenic call (Test System: AMES SALMONELLA TYPHIMURIUM, Strain/Indicator: TA1535, Metabolic Activation: RAT, LIVER, S-9, AROCLOR 1254, Method: PREINCUBATION) was “inactive; negative”, the mutagenic call (Test System: AMES SALMONELLA TYPHIMURIUM, Strain/Indicator: TA1537, Metabolic Activation: HAMSTER, LIVER, S-9, AROCLOR 1254, Method: PREINCUBATION) was “inactive; negative” and the mutagenic call [8] was “inactive; negative”. For the same compound, the mutagenic call (Test System: AMES SALMONELLA TYPHIMURIUM, Strain/Indicator: TA1537, Metabolic Activation: RAT, LIVER, S-9, AROCLOR 1254, Method: PREINCUBATION) was “inactive; negative”, the mutagenic call (Test System: AMES SALMONELLA TYPHIMURIUM, Strain/Indicator: UTH8413, Metabolic Activation: NONE, Method: STANDARD PLATE) was “inactive; negative” and the mutagenic call (Test System: AMES SALMONELLA TYPHIMURIUM, Strain/Indicator: UTH8413, Metabolic Activation: RAT, LIVER, S-9, AROCLOR, Method: STANDARD PLATE) was “inactive; negative”. For the same compound, the mutagenic call (Test System: AMES SALMONELLA TYPHIMURIUM, Strain/Indicator: UTH8414, Metabolic Activation: NONE, Method: STANDARD PLATE) was “inactive; negative” and the mutagenic call (Test System: AMES SALMONELLA TYPHIMURIUM, Strain/Indicator: UTH8414, Metabolic Activation: RAT, LIVER, S-9, AROCLOR, Method: STANDARD PLATE) was “inactive; negative”.
In the case of `O=[N+]([O-])c1ccc2c(c1)-c1ccc([N+](=O)[O-])c3cccc-2c13`, the mutagenic call (Test System: AMES SALMONELLA TYPHIMURIUM, Strain/Indicator: TA97, Metabolic Activation: NONE) is reported as “active; positive”, the mutagenic call (Test System: AMES SALMONELLA TYPHIMURIUM, Strain/Indicator: TA98(1,8-DNP6), Metabolic Activation: NONE) is reported as “active; positive” and the mutagenic call (Test System: AMES SALMONELLA TYPHIMURIUM, Strain/Indicator: TA98(NR), Metabolic Activation: NONE) is reported as “active; positive”. The mutagenic call (Test System: AMES SALMONELLA TYPHIMURIUM, Strain/Indicator: TA98, Metabolic Activation: NONE) was “active; positive”, the mutagenic call (Test System: AMES SALMONELLA TYPHIMURIUM, Strain/Indicator: TA100, Metabolic Activation: NONE) was “active; positive” and the mutagenic call (Test System: AMES SALMONELLA TYPHIMURIUM, Strain/Indicator: TA1535, Metabolic Activation: NONE) was “inactive; negative”. The mutagenic call (Test System: AMES SALMONELLA TYPHIMURIUM, Strain/Indicator: TA1537, Metabolic Activation: NONE) was “active; positive”, the mutagenic call (Test System: AMES SALMONELLA TYPHIMURIUM, Strain/Indicator: TA1538, Metabolic Activation: NONE) was “active; positive” and the mutagenic call (Test System: AMES SALMONELLA TYPHIMURIUM, Strain/Indicator: TA1978, Metabolic Activation: NONE) was “active; positive”.
For `C=C1/C(=C\C=C2/CCC[C@]3(C)[C@@H]([C@H](C)/C=C/[C@@H](O)C4CC4)CC[C@@H]23)C[C@@H](O)C[C@@H]1O`, the mutagenic call [5] was “inactive; negative”, the mutagenic call (Test System: AMES SALMONELLA TYPHIMURIUM, Strain/Indicator: TA98, Metabolic Activation: S-9, Method: PREINCUBATION) was “inactive; negative” and the mutagenic call [6] was “inactive; negative”. The mutagenic call (Test System: AMES SALMONELLA TYPHIMURIUM, Strain/Indicator: TA100, Metabolic Activation: S-9, Method: PREINCUBATION) was “inactive; negative”, the mutagenic call [7] was “inactive; negative” and the mutagenic call (Test System: AMES SALMONELLA TYPHIMURIUM, Strain/Indicator: TA1535, Metabolic Activation: S-9, Method: PREINCUBATION) was “inactive; negative”. The mutagenic call [8] was “inactive; negative”, the mutagenic call (Test System: AMES SALMONELLA TYPHIMURIUM, Strain/Indicator: TA1537, Metabolic Activation: S-9, Method: PREINCUBATION) was “inactive; negative” and the mutagenic call (Test System: E. COLI, Strain/Indicator: WP2 UVRA, Metabolic Activation: NONE, Method: PREINCUBATION) was “inactive; negative”. The mutagenic call (Test System: E. COLI, Strain/Indicator: WP2 UVRA, Metabolic Activation: S-9, Method: PREINCUBATION) was “inactive; negative”.
`O=CN(O)c1ccc2ccccc2c1` was tested, and the mutagenic call [5] was “active; positive”, the mutagenic call (Test System: AMES SALMONELLA TYPHIMURIUM, Strain/Indicator: TA98, Metabolic Activation: RAT, LIVER, CYTOSOL, Method: PREINCUBATION) was “active; positive” and the mutagenic call (Test System: AMES SALMONELLA TYPHIMURIUM, Strain/Indicator: TA98, Metabolic Activation: RAT, LIVER, MICROSOMES, Method: PREINCUBATION) was “active; positive”.
For `CC(C)[C@](O)(C(=O)O)[C@@H](C)O`, the mutagenic call [1] was “inactive; negative” and the mutagenic call [2] was “inactive; negative”.
